The values below come from US12617795B2, “Substituted 6,7-dihydro-5H-pyrrolo[3,4-d]pyrimidines, 5,7-dihydrofuro[3,4-d]pyrimidines, and pyrido[2,3-d]pyrimidines as KCC2 modulators” (Astrazeneca AB, priority 2020, dated 2026).

The target of the experiment is T1, KCC2 (Homo sapiens, UniProt Q9H2X9).
T1 construct: expressed in transfected cells; host or cells: HEK293 cells electroporated (Maxcyte STX) with the pcDNA3.1 KCC2 plasmid
T1 sequence (Q9H2X9 1-1139): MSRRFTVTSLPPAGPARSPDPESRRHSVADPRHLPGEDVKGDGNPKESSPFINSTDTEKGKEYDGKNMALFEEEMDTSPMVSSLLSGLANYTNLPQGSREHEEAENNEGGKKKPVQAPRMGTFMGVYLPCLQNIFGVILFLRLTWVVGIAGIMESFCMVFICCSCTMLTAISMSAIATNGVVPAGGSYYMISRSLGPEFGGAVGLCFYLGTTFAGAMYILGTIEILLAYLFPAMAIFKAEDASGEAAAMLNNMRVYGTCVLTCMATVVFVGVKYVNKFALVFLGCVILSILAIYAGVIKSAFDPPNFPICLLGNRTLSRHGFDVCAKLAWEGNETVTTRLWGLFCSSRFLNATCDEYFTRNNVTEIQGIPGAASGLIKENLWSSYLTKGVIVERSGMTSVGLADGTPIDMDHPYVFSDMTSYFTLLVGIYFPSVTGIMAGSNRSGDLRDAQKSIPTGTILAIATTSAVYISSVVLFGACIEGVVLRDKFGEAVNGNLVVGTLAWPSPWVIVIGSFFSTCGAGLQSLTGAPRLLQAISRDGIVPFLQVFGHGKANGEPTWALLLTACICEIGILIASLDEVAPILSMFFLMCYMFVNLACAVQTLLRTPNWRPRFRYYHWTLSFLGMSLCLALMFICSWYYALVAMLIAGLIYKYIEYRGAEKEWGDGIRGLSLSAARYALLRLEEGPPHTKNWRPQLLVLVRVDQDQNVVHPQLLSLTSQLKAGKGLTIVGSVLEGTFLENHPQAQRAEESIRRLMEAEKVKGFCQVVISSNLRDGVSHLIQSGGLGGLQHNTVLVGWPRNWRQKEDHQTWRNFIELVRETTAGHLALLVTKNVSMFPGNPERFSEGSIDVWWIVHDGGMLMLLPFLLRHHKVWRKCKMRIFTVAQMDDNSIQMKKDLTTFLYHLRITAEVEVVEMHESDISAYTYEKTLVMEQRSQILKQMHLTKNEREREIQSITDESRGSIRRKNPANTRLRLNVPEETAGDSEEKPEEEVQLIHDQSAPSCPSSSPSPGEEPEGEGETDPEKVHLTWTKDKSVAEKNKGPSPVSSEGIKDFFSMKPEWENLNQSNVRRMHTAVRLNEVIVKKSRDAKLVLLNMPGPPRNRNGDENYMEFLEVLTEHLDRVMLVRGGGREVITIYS
In words: KCC2 thallium transport FLIPR-based assay (Tl+ influx in HEK293 cells expressing KCC2). It is filed as cell-based. Particulars: 90 min compound incubation at RT, thallium flux at 120 s used to determine EC50. Put shortly:
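Transient electroporation of codon-optimised human KCC2 into HEK293 cells, plated and cultured 48 h before dye loading (1 h, RT). Compounds run as a 12-point 1:2 series from 100 μM top, 90 min RT in buffer containing bumetanide; Tl+ flux read by FLIPR after stimulus addition, 1 s intervals over 120 s, with the 120 s signal used for EC50.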

`CC(C)c1ccc(Nc2nc(N3CCO[C@H](C)C3)nc3c2CN(C(C)C)C3=O)cc1` [Example 7, 2-[(2R)-2-methylmorpholin-4-yl]-6-(propan-2-yl)-4-{[4-(propan-2-yl)phenyl]amino}-5,6-dihydro-7H-pyrrolo[3,4-d]pyrimidin-7-one] displayed an EC50 of 4.5 µM.

With `CC(C)c1ccc(Nc2nc(C3=CCOCC3)nc3c2CN(C(C)C)C3=O)cc1` [Example 50, 2-(3,6-dihydro-2H-pyran-4-yl)-6-(propan-2-yl)-4-{[4-(propan-2-yl)phenyl]amino}-5,6-dihydro-7H-pyrrolo[3,4-d]pyrimidin-7-one], the EC50 was 7.98 µM. The compound `CC(C)N1Cc2c(Nc3ccc(OC4CCCC4)cc3)nc(N3CCO[C@H](C)C3)nc2C1=O` [Example 64, 4-{[4-(cyclopentyloxy)phenyl]amino}-2-[(2R)-2-methylmorpholin-4-yl]-6-(propan-2-yl)-5,6-dihydro-7H-pyrrolo[3,4-d]pyrimidin-7-one] had an EC50 of 5.76 µM. Compound `CCCc1ccc(Nc2nc(N3CCOC(C4CC4)C3)nc3c2CN(C(C)C)C3=O)cc1` (stereo not shown) [Example 59, 2-(2-cyclopropylmorpholin-4-yl)-6-(propan-2-yl)-4-[(4-propylphenyl)amino]-5,6-dihydro-7H-pyrrolo[3,4-d]pyrimidin-7-one] gave a 50% effective concentration (EC50) of 4.46 µM. Compound `CC(C)N1Cc2c(Nc3ccc(C4CCCCC4)cc3)nc(N(C)CC3CCCO3)nc2C1=O` (stereo not shown) [Example 35] gave an EC50 of 6.3 µM. Compound `CC(C)N1Cc2c(Nc3ccc(-c4ccc(OCCNC(=O)OC(C)(C)C)cc4)cc3)nc(N3CCOC(C4CC4)C3)nc2C1=O` (stereo not shown) [Example 66, tert-butyl {2-[(4′-{[2-(2-cyclopropylmorpholin-4-yl)-7-oxo-6-(propan-2-yl)-6,7-dihydro-5H-pyrrolo[3,4-d]pyrimidin-4-yl]amino}[1,1′-biphenyl]-4-yl)oxy]ethyl}carbamate] gave an EC50 of 0.917 µM. The same measure for `CC(C)c1ccc(Nc2nc(N3CCSC3)nc3c2CN(C(C)C)C3=O)cc1` [Example 3, 6-(propan-2-yl)-4-{[4-(propan-2-yl)phenyl]amino}-2-(1,3-thiazolidin-3-yl)-5,6-dihydro-7H-pyrrolo[3,4-d]pyrimidin-7-one]: 3 µM; for `CC(C)N1Cc2c(Nc3ccc(C4CCCCC4)cc3)nc(N(C)CC(F)F)nc2C1=O` [Example 36, 4-[(4-cyclohexylphenyl)amino]-2-[(2,2-difluoroethyl)(methyl)amino]-6-(propan-2-yl)-5,6-dihydro-7H-pyrrolo[3,4-d]pyrimidin-7-one]: 6.3 µM. The compound `CCCN(CCC)c1nc(Nc2ccc(C3CCCCC3)cc2)c2c(n1)C(=O)N(C(C)C)C2` [Example 29, 4-[(4-cyclohexylphenyl)amino]-2-(dipropylamino)-6-(propan-2-yl)-5,6-dihydro-7H-pyrrolo[3,4-d]pyrimidin-7-one] returned an EC50 of 3.89 µM. The same measure for `C[C@@H]1CN(c2nc(Nc3ccc(C4CCCCC4)cc3)c3cccnc3n2)CCO1` [Example 96, N-(4-cyclohexylphenyl)-2-[(2R)-2-methylmorpholin-4-yl]pyrido[2,3-d]pyrimidin-4-amine]: 2.92 µM; for `CC1CN(c2nc(Nc3ccc(C4CCCCC4)cc3)c3c(n2)C(=O)N(C(C)C)C3)CCO1` (stereo not shown) [Example 12, 4-[(4-cyclohexylphenyl)amino]-2-(2-methylmorpholin-4-yl)-6-(propan-2-yl)-5,6-dihydro-7H-pyrrolo[3,4-d]pyrimidin-7-one]: 1.35 µM. In the case of `CC(C)N1Cc2c(Nc3ccc(C4CCCCC4)cc3)nc(N3CCOC(CCO)C3)nc2C1=O` (stereo not shown) [Example 27, 4-[(4-cyclohexylphenyl)amino]-2-[2-(2-hydroxyethyl)morpholin-4-yl]-6-(propan-2-yl)-5,6-dihydro-7H-pyrrolo[3,4-d]pyrimidin-7-one] it was 3.58 µM; in that of `CC(C)N1Cc2c(Nc3ccc(C4CCCCC4)cc3)nc(N3CCSC3)nc2C1=O` [Example 19, 4-[(4-cyclohexylphenyl)amino]-6-(propan-2-yl)-2-(1,3-thiazolidin-3-yl)-5,6-dihydro-7H-pyrrolo[3,4-d]pyrimidin-7-one], 2.04 µM.

Regarding `C[C@@H]1CN(c2nc(Nc3ccc(C4CCCCC4)cc3)c3c(n2)C(=O)N(CCCN(C)C)C3)CCO1` [Example 72, (R)-4-((4-cyclohexylphenyl)amino)-6-(3-(dimethylamino)propyl)-2-(2-methylmorpholino)-5,6-dihydro-7H-pyrrolo[3,4-d]pyrimidin-7-one], the EC50 is 1.53 µM.

As for `CCN1Cc2c(Nc3ccc(C4CCCCC4)cc3)nc(N3CCO[C@H](C)C3)nc2C1=O` [Example 68, 4-[(4-cyclohexylphenyl)amino]-6-ethyl-2-[(2R)-2-methylmorpholin-4-yl]-5,6-dihydro-7H-pyrrolo[3,4-d]pyrimidin-7-one], the EC50 turned out to be 1.94 µM.

The compound `CC(C)N1Cc2c(Nc3ccc(C4CCCCC4)cc3)nc(N3CCOC(C4CC4)C3)nc2C1=O` (stereo not shown) [Example 2, 4-((4-cyclohexylphenyl)amino)-2-(2-cyclopropylmorpholino)-6-isopropyl-5,6-dihydro-7H-pyrrolo[3,4-d]pyrimidin-7-one] registered an EC50 of 0.672 µM.

In general, EC50 refers to the concentration at which the effect is half-maximal.
